Measurements as given in the kinase profiling compilation of Christmann-Franck et al. (2016).

How the values were obtained:
Test in all cases: radiometric filter-binding kinase assay, Kinase HotSpot
Details in all cases: compound 0.5 µM; ATP 10 µM
[1] = target: ACVR1 (human) (UniProt Q04771)
[2] = target: ACVRL1 (human) (UniProt P37023)
[3] = target: BMX (human) (UniProt P51813)
[4] = target: BTK (human) (UniProt Q06187)
[5] = target: CAMKK1 (human) (UniProt Q8N5S9)
[6] = target: CDC42BPB (human) (UniProt Q9Y5S2)
[7] = target: CDK4 CCND3 (human) (UniProt P30281+P11802)
[8] = target: CLK1 (human) (UniProt P49759)
[9] = target: CSNK1E (human) (UniProt P49674)
[10] = target: DCLK2 (human) (UniProt Q8N568)
[11] = target: DDR2 (human) (UniProt Q16832)
[12] = target: DYRK1B (human) (UniProt Q9Y463)
[13] = target: EPHB4 (human) (UniProt P54760)
[14] = target: FES (human) (UniProt P07332)
Chain of FES (human) (P07332 whole entry, looked up): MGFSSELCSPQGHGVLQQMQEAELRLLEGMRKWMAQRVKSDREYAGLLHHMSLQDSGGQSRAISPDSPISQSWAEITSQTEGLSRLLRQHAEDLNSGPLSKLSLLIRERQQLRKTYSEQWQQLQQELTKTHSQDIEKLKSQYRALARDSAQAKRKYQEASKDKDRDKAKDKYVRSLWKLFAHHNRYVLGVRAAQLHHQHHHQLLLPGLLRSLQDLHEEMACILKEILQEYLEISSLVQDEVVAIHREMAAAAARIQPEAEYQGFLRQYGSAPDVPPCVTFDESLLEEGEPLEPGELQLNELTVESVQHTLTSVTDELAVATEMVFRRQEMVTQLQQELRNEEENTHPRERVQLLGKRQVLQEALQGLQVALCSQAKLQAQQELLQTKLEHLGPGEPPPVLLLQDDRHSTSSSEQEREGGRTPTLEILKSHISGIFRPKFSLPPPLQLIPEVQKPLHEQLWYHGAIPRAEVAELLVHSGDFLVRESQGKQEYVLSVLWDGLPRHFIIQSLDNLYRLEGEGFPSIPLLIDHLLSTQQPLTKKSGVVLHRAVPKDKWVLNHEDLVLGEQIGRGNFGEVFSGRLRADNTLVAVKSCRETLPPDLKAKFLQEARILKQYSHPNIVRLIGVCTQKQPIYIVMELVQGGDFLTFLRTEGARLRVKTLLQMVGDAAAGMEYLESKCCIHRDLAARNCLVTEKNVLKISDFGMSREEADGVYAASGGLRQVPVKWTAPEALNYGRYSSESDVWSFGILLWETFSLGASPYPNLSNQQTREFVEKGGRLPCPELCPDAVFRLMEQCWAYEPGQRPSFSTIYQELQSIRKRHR

[15] = target: FLT3 (human) (UniProt P36888)
Chain of FLT3 (human) (P36888 whole entry, looked up): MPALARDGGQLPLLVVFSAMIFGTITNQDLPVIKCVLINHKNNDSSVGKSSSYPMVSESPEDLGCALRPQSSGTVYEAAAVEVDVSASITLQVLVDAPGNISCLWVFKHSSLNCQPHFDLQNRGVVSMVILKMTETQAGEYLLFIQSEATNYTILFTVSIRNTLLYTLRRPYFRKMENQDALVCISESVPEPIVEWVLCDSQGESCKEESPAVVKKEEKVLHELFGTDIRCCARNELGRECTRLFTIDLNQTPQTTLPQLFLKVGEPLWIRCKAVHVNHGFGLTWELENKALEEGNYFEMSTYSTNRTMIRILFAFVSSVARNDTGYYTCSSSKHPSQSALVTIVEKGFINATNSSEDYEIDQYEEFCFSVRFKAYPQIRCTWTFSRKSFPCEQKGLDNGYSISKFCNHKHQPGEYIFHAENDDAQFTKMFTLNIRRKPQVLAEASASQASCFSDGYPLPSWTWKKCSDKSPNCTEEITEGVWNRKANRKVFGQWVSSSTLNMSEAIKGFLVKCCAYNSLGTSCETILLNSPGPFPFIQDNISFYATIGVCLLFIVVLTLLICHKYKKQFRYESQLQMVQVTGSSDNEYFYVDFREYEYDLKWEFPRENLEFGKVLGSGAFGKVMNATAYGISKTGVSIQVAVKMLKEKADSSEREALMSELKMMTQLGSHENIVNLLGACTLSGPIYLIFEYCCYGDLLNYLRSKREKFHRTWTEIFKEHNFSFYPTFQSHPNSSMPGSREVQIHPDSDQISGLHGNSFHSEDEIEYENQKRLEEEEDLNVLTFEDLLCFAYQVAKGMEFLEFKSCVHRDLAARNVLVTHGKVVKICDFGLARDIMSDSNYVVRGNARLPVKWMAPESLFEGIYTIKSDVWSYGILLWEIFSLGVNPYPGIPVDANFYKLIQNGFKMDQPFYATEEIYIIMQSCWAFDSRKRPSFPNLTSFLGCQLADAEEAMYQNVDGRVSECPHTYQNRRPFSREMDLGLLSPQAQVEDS

[16] = target: GSG2 (human) (UniProt Q8TF76)
[17] = target: INSR (human) (UniProt P06213)
[18] = target: JAK3 JH1 JH2 (human) (UniProt P52333)
[19] = target: LCK (human) (UniProt P06239)
Chain of LCK (human) (P06239 whole entry, looked up): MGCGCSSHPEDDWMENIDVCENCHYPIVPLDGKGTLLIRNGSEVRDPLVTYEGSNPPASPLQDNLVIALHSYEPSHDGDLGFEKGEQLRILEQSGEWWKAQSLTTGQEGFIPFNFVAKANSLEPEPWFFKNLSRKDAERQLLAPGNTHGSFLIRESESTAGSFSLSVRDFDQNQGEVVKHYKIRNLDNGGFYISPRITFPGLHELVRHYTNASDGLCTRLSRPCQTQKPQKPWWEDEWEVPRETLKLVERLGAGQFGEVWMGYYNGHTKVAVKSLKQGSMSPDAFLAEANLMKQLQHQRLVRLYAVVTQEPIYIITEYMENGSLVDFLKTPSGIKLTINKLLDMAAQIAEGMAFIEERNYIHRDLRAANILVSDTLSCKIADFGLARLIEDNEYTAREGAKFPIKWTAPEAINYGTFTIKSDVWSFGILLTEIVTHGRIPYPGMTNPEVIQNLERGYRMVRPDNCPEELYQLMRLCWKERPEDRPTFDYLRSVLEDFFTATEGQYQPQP

[20] = target: MAP3K14 (human) (UniProt Q99558)
[21] = target: MAPK13 (human) (UniProt O15264)
[22] = target: MKNK2 (human) (UniProt Q9HBH9)
[23] = target: MYLK2 (human) (UniProt Q9H1R3)
[24] = target: NEK11 (human) (UniProt Q8NG66)
[25] = target: NEK9 (human) (UniProt Q8TD19)
[26] = target: PAK2 (human) (UniProt Q13177)
[27] = target: PASK (human) (UniProt Q96RG2)
[28] = target: PHKG2 (human) (UniProt P15735)
[29] = target: PIM1 (human) (UniProt P11309)
Chain of PIM1 (human) (P11309 whole entry, looked up): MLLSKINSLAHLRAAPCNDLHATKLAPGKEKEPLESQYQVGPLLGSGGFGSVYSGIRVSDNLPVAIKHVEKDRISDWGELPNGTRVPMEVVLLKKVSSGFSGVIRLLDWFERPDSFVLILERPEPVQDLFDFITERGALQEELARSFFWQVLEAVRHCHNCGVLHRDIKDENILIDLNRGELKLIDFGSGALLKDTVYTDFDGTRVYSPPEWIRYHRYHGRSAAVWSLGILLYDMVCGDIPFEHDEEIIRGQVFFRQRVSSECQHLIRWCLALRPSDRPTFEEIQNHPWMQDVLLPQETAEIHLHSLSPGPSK

[30] = target: PLK1 (human) (UniProt P53350)
[31] = target: PRKCA (human) (UniProt P17252)
[32] = target: PRKCE (human) (UniProt Q02156)
[33] = target: PRKCH (human) (UniProt P24723)
[34] = target: PRKCZ (human) (UniProt Q05513)
[35] = target: PTK6 (human) (UniProt Q13882)
[36] = target: RET (human) (UniProt P07949)
Chain of RET (human) (P07949 whole entry, looked up): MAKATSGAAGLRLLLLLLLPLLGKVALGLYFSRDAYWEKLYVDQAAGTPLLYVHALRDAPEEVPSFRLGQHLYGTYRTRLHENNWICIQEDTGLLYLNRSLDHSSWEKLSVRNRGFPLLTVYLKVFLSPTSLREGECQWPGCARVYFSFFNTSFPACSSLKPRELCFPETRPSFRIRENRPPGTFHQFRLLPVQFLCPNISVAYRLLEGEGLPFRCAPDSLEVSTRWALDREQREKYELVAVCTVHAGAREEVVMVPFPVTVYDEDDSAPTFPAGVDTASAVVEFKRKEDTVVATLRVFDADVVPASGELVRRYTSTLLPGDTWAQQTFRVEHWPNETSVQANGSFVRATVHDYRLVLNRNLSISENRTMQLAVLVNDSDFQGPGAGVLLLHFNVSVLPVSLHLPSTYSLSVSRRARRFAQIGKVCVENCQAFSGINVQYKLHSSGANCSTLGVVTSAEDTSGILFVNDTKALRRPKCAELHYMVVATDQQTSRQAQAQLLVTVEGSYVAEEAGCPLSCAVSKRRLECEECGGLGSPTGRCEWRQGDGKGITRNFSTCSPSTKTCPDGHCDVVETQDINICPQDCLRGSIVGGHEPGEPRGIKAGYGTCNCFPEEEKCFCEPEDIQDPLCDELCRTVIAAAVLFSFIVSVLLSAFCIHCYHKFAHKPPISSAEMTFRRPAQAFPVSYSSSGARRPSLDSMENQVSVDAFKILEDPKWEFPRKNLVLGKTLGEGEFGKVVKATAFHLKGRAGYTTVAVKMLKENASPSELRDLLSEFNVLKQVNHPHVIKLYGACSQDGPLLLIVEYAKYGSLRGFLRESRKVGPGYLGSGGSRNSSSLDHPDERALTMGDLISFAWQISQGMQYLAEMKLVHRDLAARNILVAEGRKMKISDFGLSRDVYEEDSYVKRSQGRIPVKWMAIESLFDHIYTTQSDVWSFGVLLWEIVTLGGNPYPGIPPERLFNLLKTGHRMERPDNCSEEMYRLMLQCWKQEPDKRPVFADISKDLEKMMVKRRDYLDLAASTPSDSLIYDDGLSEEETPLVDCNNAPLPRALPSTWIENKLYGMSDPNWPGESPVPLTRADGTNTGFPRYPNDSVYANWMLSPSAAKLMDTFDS

[37] = target: RPS6KA4 KD2 (human) (UniProt O75676)
[38] = target: RPS6KB2 (human) (UniProt Q9UBS0)
Chain of RPS6KB2 (human) (Q9UBS0 whole entry, looked up): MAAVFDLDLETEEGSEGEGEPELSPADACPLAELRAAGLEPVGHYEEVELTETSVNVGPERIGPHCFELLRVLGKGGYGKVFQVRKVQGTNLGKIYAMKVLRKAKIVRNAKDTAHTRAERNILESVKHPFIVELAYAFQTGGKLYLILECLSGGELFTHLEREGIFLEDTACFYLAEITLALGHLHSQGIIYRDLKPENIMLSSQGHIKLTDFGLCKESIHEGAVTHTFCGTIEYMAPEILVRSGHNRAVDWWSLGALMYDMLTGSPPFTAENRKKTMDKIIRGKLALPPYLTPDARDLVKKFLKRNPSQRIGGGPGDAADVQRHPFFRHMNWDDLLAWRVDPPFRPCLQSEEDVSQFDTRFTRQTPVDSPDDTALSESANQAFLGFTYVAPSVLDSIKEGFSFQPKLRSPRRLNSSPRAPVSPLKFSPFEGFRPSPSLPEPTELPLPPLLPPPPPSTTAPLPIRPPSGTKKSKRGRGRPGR

[39] = target: SRPK3 (human) (UniProt Q9UPE1)
[40] = target: STK17A (human) (UniProt Q9UEE5)
[41] = target: STK25 (human) (UniProt O00506)
[42] = target: ULK2 (human) (UniProt Q8IYT8)

Chain of BTK (human) (Q06187 whole entry, looked up): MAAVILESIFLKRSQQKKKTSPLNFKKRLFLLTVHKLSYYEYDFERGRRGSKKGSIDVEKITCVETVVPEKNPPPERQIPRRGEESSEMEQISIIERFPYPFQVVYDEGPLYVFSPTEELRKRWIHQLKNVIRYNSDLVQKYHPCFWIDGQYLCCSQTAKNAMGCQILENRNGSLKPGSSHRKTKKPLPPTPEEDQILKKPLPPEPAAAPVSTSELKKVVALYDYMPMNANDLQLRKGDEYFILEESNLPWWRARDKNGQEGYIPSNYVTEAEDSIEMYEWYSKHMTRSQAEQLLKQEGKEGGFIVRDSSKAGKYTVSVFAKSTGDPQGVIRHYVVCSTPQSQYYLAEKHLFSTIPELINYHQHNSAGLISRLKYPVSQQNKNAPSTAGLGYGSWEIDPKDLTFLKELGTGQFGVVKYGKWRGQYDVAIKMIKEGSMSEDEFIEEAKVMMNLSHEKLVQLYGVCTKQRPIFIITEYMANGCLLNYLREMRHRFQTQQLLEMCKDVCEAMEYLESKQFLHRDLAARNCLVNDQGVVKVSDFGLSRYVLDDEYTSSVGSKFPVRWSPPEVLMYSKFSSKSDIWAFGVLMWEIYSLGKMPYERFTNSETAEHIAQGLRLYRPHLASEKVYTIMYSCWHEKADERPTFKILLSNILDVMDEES

How did the residual activity [1] turn out when `CSc1nc(-c2ccc(F)cc2)c(-c2ccnc(NC(C)c3ccccc3)c2)[nH]1` (centres undefined) was run?
Its residual activity is 89.3%.

What about the residual activity [2] of the same molecule?
The residual activity was 92.2%.

What about the residual activity [3] of the same molecule?
Its residual activity is 102%.

What about the residual activity [4] of the same molecule?
Its residual activity is 76.6%.

What about the residual activity [5] of the same molecule?
The residual activity was 104%.

And the residual activity [6]?
Its residual activity is 98.8%.

What about the residual activity [7] of the same molecule?
The residual activity was 111%.

And the residual activity [8]?
Its residual activity is 96.8%.

What about the residual activity [9] of the same molecule?
Its residual activity is 72%.

And the residual activity [10]?
The residual activity was 92.7%.

And the residual activity [11]?
Its residual activity is 89.8%.

And the residual activity [12]?
The residual activity was 84.6%.

And the residual activity [13]?
The residual activity was 99.9%.

And the residual activity [14]?
Its residual activity is 93.8%.

What about the residual activity [15] of the same molecule?
The residual activity was 92.8%.

What about the residual activity [16] of the same molecule?
The residual activity was 96.3%.

And the residual activity [17]?
The residual activity was 100%.

And the residual activity [18]?
The residual activity was 98.5%.

What about the residual activity [19] of the same molecule?
The residual activity was 102%.

And the residual activity [20]?
Its residual activity is 127%.

What about the residual activity [21] of the same molecule?
The residual activity was 93.9%.

And the residual activity [22]?
Its residual activity is 105%.

What about the residual activity [23] of the same molecule?
Its residual activity is 102%.

And the residual activity [24]?
Its residual activity is 108%.

And the residual activity [25]?
The residual activity was 89.4%.

And the residual activity [26]?
The residual activity was 104%.

And the residual activity [27]?
The residual activity was 95.7%.

And the residual activity [28]?
The residual activity was 125%.

What about the residual activity [29] of the same molecule?
Its residual activity is 91.8%.

What about the residual activity [30] of the same molecule?
Its residual activity is 99.1%.

What about the residual activity [31] of the same molecule?
The residual activity was 108%.

What about the residual activity [32] of the same molecule?
The residual activity was 87.6%.

And the residual activity [33]?
The residual activity was 94.5%.

And the residual activity [34]?
Its residual activity is 111%.

And the residual activity [35]?
Its residual activity is 96.8%.

And the residual activity [36]?
The residual activity was 101%.

And the residual activity [37]?
Its residual activity is 96.5%.

What about the residual activity [38] of the same molecule?
The residual activity was 92.8%.

What about the residual activity [39] of the same molecule?
The residual activity was 92.8%.

And the residual activity [40]?
Its residual activity is 97.8%.

And the residual activity [41]?
Its residual activity is 118%.

And the residual activity [42]?
The residual activity was 94.1%.

How did the residual activity [1] turn out when `CCCNC(=O)Nc1ccc(Oc2ncnc3cc(OC)c(OC)cc23)cc1Cl` was run?
Its residual activity is 101%.

And the residual activity [2]?
Its residual activity is 100%.

What about the residual activity [3] of the same molecule?
The residual activity was 93.6%.

And the residual activity [4]?
Its residual activity is 98.6%.

And the residual activity [5]?
Its residual activity is 93.1%.

And the residual activity [6]?
Its residual activity is 87.4%.

And the residual activity [7]?
The residual activity was 101%.

What about the residual activity [8] of the same molecule?
Its residual activity is 96.2%.

And the residual activity [9]?
The residual activity was 78.5%.

What about the residual activity [10] of the same molecule?
Its residual activity is 96.4%.

And the residual activity [11]?
Its residual activity is 67.6%.

What about the residual activity [12] of the same molecule?
Its residual activity is 104%.

And the residual activity [13]?
The residual activity was 89.4%.

And the residual activity [14]?
Its residual activity is 96%.

What about the residual activity [15] of the same molecule?
Its residual activity is 82.1%.

What about the residual activity [16] of the same molecule?
Its residual activity is 99.1%.

And the residual activity [17]?
The residual activity was 92.4%.

What about the residual activity [18] of the same molecule?
The residual activity was 88.9%.

What about the residual activity [19] of the same molecule?
Its residual activity is 81.8%.

And the residual activity [20]?
Its residual activity is 109%.

What about the residual activity [21] of the same molecule?
The residual activity was 100%.

What about the residual activity [22] of the same molecule?
The residual activity was 81.3%.

What about the residual activity [23] of the same molecule?
The residual activity was 99.9%.

What about the residual activity [24] of the same molecule?
The residual activity was 101%.

What about the residual activity [25] of the same molecule?
The residual activity was 83.3%.

What about the residual activity [26] of the same molecule?
The residual activity was 81.4%.

And the residual activity [27]?
Its residual activity is 87.7%.

What about the residual activity [28] of the same molecule?
The residual activity was 84.1%.

And the residual activity [29]?
Its residual activity is 102%.

And the residual activity [30]?
The residual activity was 101%.

And the residual activity [31]?
Its residual activity is 99.3%.

What about the residual activity [32] of the same molecule?
The residual activity was 96.8%.

What about the residual activity [33] of the same molecule?
Its residual activity is 101%.

What about the residual activity [34] of the same molecule?
Its residual activity is 102%.

What about the residual activity [35] of the same molecule?
The residual activity was 48.3%.

And the residual activity [36]?
The residual activity was 8.42%.

And the residual activity [37]?
The residual activity was 98.5%.

What about the residual activity [38] of the same molecule?
Its residual activity is 104%.

And the residual activity [39]?
The residual activity was 95.8%.

What about the residual activity [40] of the same molecule?
Its residual activity is 99%.

What about the residual activity [41] of the same molecule?
Its residual activity is 92.6%.

And the residual activity [42]?
Its residual activity is 89.2%.
